In patent US10703746B2, “Mutant IDH1 inhibitors useful for treating cancer” (THE UNITED STATES OF AMERICA, AS REPRESENTED BY THE …, priority 2014, dated 2020):

How the values were obtained:
[1] = biological target: IDH1 R132C (Homo sapiens, UniProt O75874, R132C); assay: IDH1 R132C enzymatic assay (NADPH depletion coupled to diaphorase/resazurin); format: biochemical
Method in brief: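 NADPH depletion, read via diaphorase/resazurin coupling, after adding substrate at 0.6 mM α-KG and 0.012 mM NADPH. Beforehand, 0.00032 mg/mL enzyme sat with compound 30 min at room temperature in pH 6.5 potassium phosphate buffer with MgCl2, glycerol and BSA.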

[2] = biological target: IDH1 R132H (Homo sapiens, UniProt O75874, R132H); assay: IDH1 R132H enzymatic assay (NADPH depletion coupled to diaphorase/resazurin); format: biochemical
[3] = IDH1 R132C enzymatic inhibition, IC50 class
[4] = IDH1 R132H enzymatic inhibition, IC50 class
[5] = enzymatic inhibition, IDH1 R132C
[6] = enzymatic inhibition, IDH1 R132H

Sequence of IDH1 R132H (O75874 whole entry R132H): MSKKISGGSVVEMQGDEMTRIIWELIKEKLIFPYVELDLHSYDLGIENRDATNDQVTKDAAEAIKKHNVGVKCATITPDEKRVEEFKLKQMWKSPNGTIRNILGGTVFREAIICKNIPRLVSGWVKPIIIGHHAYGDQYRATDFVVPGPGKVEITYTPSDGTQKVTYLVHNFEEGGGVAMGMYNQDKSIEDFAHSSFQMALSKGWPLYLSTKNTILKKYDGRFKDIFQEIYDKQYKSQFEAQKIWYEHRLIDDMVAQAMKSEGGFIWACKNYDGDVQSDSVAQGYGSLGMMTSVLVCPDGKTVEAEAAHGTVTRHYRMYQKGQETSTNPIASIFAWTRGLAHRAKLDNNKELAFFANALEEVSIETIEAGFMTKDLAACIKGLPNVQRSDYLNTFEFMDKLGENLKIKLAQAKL
Sequence of IDH1 R132C (O75874 whole entry R132C): as the sequence (O75874 whole entry R132H) above, with H132C counted along it

| IC50 [1, 3] | IC50 [2, 4] | IC50 [1, 5] | IC50 [2, 6] | Structure (SMILES) |
| --- | --- | --- | --- | --- |
| < 0.3 µM | 0.3 to 1 µM | – | – | CCc1cccc(CC)c1-n1c(CC(C)C)c(C(=O)N2CC(C(=O)O)NCC2C)cc(-c2nc(-c3ccc(Cl)cc3)cs2)c1=O (stereo not shown) [Compound 206] |
| – | – | < 0.3 µM | < 0.3 µM | CCc1cccc(CC)c1-n1c(C=C(C)C)c(C(=O)N2CCNCC2CC(=O)O)cc(-c2nc(-c3ccc(Cl)cc3)cs2)c1=O (stereo not shown) [Compound 599] |
| 1 to 5 µM | > 20 µM | – | – | CCc1cccc(CC)c1-n1c(C)c(C(=O)NCC(C)C)cc(-c2nc(-c3ccc(Cl)cc3)cs2)c1=O [Compound 313] |
| > 20 µM | > 20 µM | – | – | COc1ccc(OC)c(-n2c(=O)c(-c3nc(-c4ccc(Cl)cc4)cs3)cc3c(O)cccc32)c1 [Compound 68] |
| – | – | < 0.3 µM | 0.3 to 1 µM | C=Cc1sc(-c2cc(C(=O)N3CCNCC3)c(CC(C)C)n(-c3c(CC)cccc3CC)c2=O)nc1-c1ccc(Cl)cc1 [Compound 413] |
| – | – | < 0.3 µM | < 0.3 µM | CCc1cccc(CC)c1-n1c(C=C(C)C)c(C(=O)N2CCNCC2)cc(-c2nc(-c3ccc(C(F)F)cn3)cs2)c1=O [Compound 559] |
| 0.3 to 1 µM | 0.3 to 1 µM | – | – | CC1(C)CC(=O)c2cc(-c3nc(-c4ccc(F)cc4)cs3)c(=O)n(-c3ccccc3C(F)(F)F)c2C1 [Compound 30] |
| – | – | < 0.3 µM | < 0.3 µM | CCc1cccc(CC)c1-n1c(C=C(C)C)c(C(=O)N2CCNC(=O)C2C)cc(-c2nc(-c3ccc(Cl)cc3)cs2)c1=O (stereo not shown) [Compound 526] |
| 1 to 5 µM | 1 to 5 µM | – | – | CCc1cccc(CC)c1-n1c(C)c(C(=O)NC2CC2)cc(-c2nc(-c3ccc(Cl)cc3)cs2)c1=O [Compound 265] |
| 0.3 to 1 µM | < 0.3 µM | – | – | CCOc1ncccc1-n1c(C=C(C)C)c(C(=O)N2CCNCC2)cc(-c2nc(-c3ccc(Cl)cc3)cs2)c1=O [Compound 331] |
| 1 to 5 µM | < 0.3 µM | – | – | CCc1cccc(CC)c1-n1c(C)c(C(=O)N2CCNC(=O)C2)cc(-c2nc(-c3ccc(Cl)cc3)cs2)c1=O [Compound 138] |
| 0.3 to 1 µM | 1 to 5 µM | – | – | COc1ccc(-c2csc(-c3cc4c(n(-c5ccccc5C(F)(F)F)c3=O)CC(C)(C)CC4=O)n2)cc1 [Compound 204] |
| < 0.3 µM | 0.3 to 1 µM | – | – | CCc1cccc(CC)c1-n1c(CC(C)C)c(C(=O)N2CCNC[C@H]2C)cc(-c2nc(-c3ccc(Cl)cc3)cs2)c1=O [Compound 267] |
| 5 to 20 µM | 5 to 20 µM | – | – | COc1ccc(C(=O)O)cc1-n1c2c(cc(-c3nc(-c4ccc(Cl)cc4)cs3)c1=O)C(=O)CC(C)(C)C2 [Compound 27] |
| – | – | 1 to 5 µM | 1 to 5 µM | CCc1cccc(CC)c1-n1c(CC(C)C)c(C(=O)N2CCNCC2)cc(-c2nc(-c3ccc(C(=O)N(C)C)cc3)c(C)s2)c1=O [Compound 419] |
| – | – | < 0.3 µM | 0.3 to 1 µM | CCc1cccc(CC)c1-n1c(CC(C)C)c(C(=O)N2CCNCC2)cc(-c2nc(-c3ccc(Cl)c(Cl)c3)c(C)s2)c1=O [Compound 551] |
| < 0.3 µM | 0.3 to 1 µM | – | – | CCc1cccc(CC)c1-n1c(C2CCCC2)c(C(=O)N2CCNCC2)cc(-c2nc(-c3ccc(Cl)cc3)cs2)c1=O [Compound 398] |
| – | – | 5 to 20 µM | 5 to 20 µM | Cc1c(CO)cccc1-n1c2c(cc(-c3nc(-c4ccc(Cl)nc4)cs3)c1=O)C(=O)CCC2 [Compound 486] |
| < 0.3 µM | 0.3 to 1 µM | – | – | CCc1cccc(CC)c1-n1c(CC(C)C)c(C(=O)N2CCNCC2(C)C)cc(-c2nc(-c3ccc(Cl)cc3)cs2)c1=O [Compound 274] |
| – | – | 1 to 5 µM | 5 to 20 µM | CCc1cccc(C)c1-n1c2c(cc(-c3nc(-c4ccccc4)cs3)c1=O)C(=O)CCC2 [Compound 543] |
| < 0.3 µM | < 0.3 µM | – | – | CC1(C)CC(=O)c2cc(-c3nc(-c4ccc(Cl)cc4)cs3)c(=O)n(-c3ccccc3Oc3ccccc3)c2C1 [Compound 49] |
| – | – | < 0.3 µM | < 0.3 µM | COc1ncc(Cl)cc1-n1c(C=C(C)C)c(C(=O)N2CCNCC2)cc(-c2nc(-c3ccc(Cl)cc3)cs2)c1=O [Compound 490] |
| 1 to 5 µM | 1 to 5 µM | – | – | Cc1ccc([N+](=O)[O-])cc1-n1c2c(cc(-c3nc(-c4ccc(Cl)cc4)cs3)c1=O)C(=O)CC(C)(C)C2 [Compound 182] |
| 5 to 20 µM | 1 to 5 µM | – | – | CCc1cccc(CC)c1-n1c(CC(C)C)c(C(=O)O)cc(-c2nc(-c3ccc(Cl)cc3)cs2)c1=O [Compound 14] |
| > 20 µM | > 20 µM | – | – | CCc1cccc(CC)c1-n1c2c(cc(-c3nc(-c4cccc(OC)c4)cs3)c1=O)C(=O)CC(C)(C)C2 [Compound 163] |
| < 0.3 µM | 0.3 to 1 µM | – | – | CCc1cccc(CC)c1-n1c(CC(C)C)c(C(=O)NC(C)CO)cc(-c2nc(-c3ccc(Cl)cc3)cs2)c1=O (stereo not shown) [Compound 118] |
| < 0.3 µM | 1 to 5 µM | – | – | CCc1cccc(CC)c1-n1c(CC(C)C)c(C(=O)N2CCNCC2C(=O)OC)cc(-c2nc(-c3ccc(Cl)cc3)cs2)c1=O (stereo not shown) [Compound 147] |
| 1 to 5 µM | 1 to 5 µM | – | – | CCc1cccc(CC)c1-n1c(C)c(C(=O)N2CCCCC2)cc(-c2nc(-c3ccc(Cl)cc3)cs2)c1=O [Compound 156] |
| 5 to 20 µM | 5 to 20 µM | – | – | CCc1cccc(CC)c1-n1c(CC(C)C)c(C(=O)N2CCNCC2)cc(-n2cc(-c3ccc(Cl)cc3)cn2)c1=O [Compound 658] |
